Values quoted from earlier work in US12377118B2, “Nanoparticle constructs for systemic co-delivery of anti-tumor agents” (CASE WESTERN RESERVE UNIVERSITY, priority 2019, dated 2025).

Tested on: 4T1 orthotopic mammary tumor
Conditions: i.t.

Nc1nc2c(ncn2[C@@H]2O[C@@H]3COP(=O)(O)O[C@H]4[C@@H](O)[C@H](n5cnc6c(=O)[nH]c(N)nc65)O[C@@H]4COP(=O)(O)O[C@H]3[C@H]2O)c(=O)[nH]1 [free cdGMP, cyclic diguanylate monophosphate]
dose needed to regress early 4T1 primary tumors: up to 50 μg
